# Legend:
# Type in all cases: cell-based, human
# MDA-MB-468 cells [1] = assay: Cell death by trypan blue exclusion
# Protocol: Trypan blue exclusion and propidium iodide staining were used to quantify general cell death and the presence of apoptotic cell death was confirmed by immunoblot. The percentage of dead cells in a given population was determined by quantifying the number of trypan blue positive (dead) cells and dividing by the total number of trypan blue positive and negative cells.
# MDA-MB-468 cells [2] = assay: SubG1 population by flow cytometry; conditions: 10 μM, 48 h
# Protocol: FIG. 29 illustrates the time-course of a Sigma1 antagonist inducing apoptotic cell death of breast adenocarcinoma cells. Treatment with Sigma1 antagonist, IPAG, induces apoptotic cell death of MDA-MB-468 cells, as indicated by the percentage of subG1 phase cells. […] The far left panel represents cells treated or 24 hours with DMSO (vehicle control).
# FIG. 37, comprising FIGS. 37A-37D, illustrates that inhibition of autophagy accelerates and/or potentiates Sigma1 antagonist induced apoptosis. FIG. 37A is a graph illustrating the time-course of Sigma antagonist-induced cell death as measured by flow cytometry. MDA-MB-468 cells were treated with DMSO (control), 10 μM IPAG (antagonist), or 10 μM PRE084 (agonist), fixed and stained with propidium iodide for DNA content analysis. The subG1 population was quantified and used as a measure of cell death. Data are from 4 independent determinations. FIG. 37B is an image of a Western blot of caspase 3 (Asp175) cleavage. IPAG induced apoptotic cell death occurred at the 48 hour treatment time point. FIG. 37C is a graph illustrating DA-MB-468 cells treated for 24 hours with a combination of IPAG (10 μM) and autophagy inhibitor 3-methyladenine (3-MA, 5 mM). Cell death was measured by trypan blue exclusion. […] For FIGS. 37A-37C, statistical significance was determined by two-way ANOVA followed by Bonferroni post-test, ***P<0.001.
# [3] = system: MDA-MB-468 breast tumor cells; assay: Akt, S6K and ERK phosphorylation immunoblots
# Protocol: FIG. 40, comprising FIGS. 40A-40C, illustrates Sigma1 antagonist modulation of Akt, S6K, and ERK phosphorylation. MDA-MB-468 breast tumor cells were treated for 24 hours with 10 μM IPAG (Sigma1 antagonist) or (+)SKF-10047 (SKF, Sigma1 agonist). Treated cells were harvested and cellular proteins were extracted with a buffer containing 1% Sodium Dodecyl Sulfate (SDS) and deoxycholate (DOC), supplemented with phosphatase and protease inhibitors. FIG. 40A is an image of an immunoblot illustrating Akt phosphorylation. […] Akt phosphorylation at threonine 308 was not altered in any of the samples (not shown). Equivalent loading was confirmed with an anti-GAPDH antibody. FIG. 40B is an image of an immunoblot illustrating phosphorylation. Phosphorylation of mTOR substrate, p70S6K at threonine 389 decreased 3-fold in IPAG, but not SKF treated cells. Total p70S6K was immunoblotted as a loading control. FIG. 40C is an immunoblot illustrating that p44/42 ERK1/2phosphorylation at threonine 202 and tyrosine 204 was abrogated by 24 hour treatment with IPAG. Data shown is representative of two independent experiments.
# PC3 and DU145 PCa cells = assay: UPR induction in prostate cancer cell lines; conditions: preliminary experiments
# Excerpt: FIG. 15 is an image of an immunoblot illustrating induction of UPR in a prostate cancer cell line. […] P-IRE1α indicates phosphorylated IRE1α. Similar results were obtained with DU145 prostate cancer cells.
# This might be due to an accumulation of ubiquitylated proteins or due to an increase in ubiquitin ligase activity. Progression of the ER stress response could be monitored by a set of markers, many of which have been directly linked to the UPR. The most extensively investigated sensors that initiate the UPR are IRE1α, PERK, and ATF6, which transduce signals to a cascade of effectors. Many of these UPR 4 effectors function as transcription factors that induce the synthesis of ER chaperones, such as GRP78/BiP and GRP94, involved in maintaining protein homeostasis.
smiles,measurement,setting,value
"N=C(Nc1ccc(I)cc1)NC1C2CC3CC(C2)CC1C3 (stereo not drawn) [IPAG, 1-(4-iodophenyl)-3-(2-adamantyl)guanidine]",dead cells per well,"MDA-MB-468 cells [1]; 10 μM, 24 hours, with 3-MA (5 mM) or siRNA knockdown of Beclin1",over 33%
same,proportion of dead cells (apoptotic cell death),"MDA-MB-468 cells [1]; 10 μM, 48 hours of continuous treatment",30±2%
same,proportion of dead cells,"MDA-MB-468 cells [1]; 24 hours, IRE1α knockdown",47±8%
same,dead cells per well,"MDA-MB-468 cells [1]; 24 hours, combined treatment with IPAG and 3-MA",24±5%
same,proportion of dead cells,"MDA-MB-468 cells [1]; 24 hours, control siRNA transfected cells",9±4%
same,proportion of dead cells,MDA-MB-468 cells [1]; by 72 hours,> 75%
same,dead cells per well,MDA-MB-468 cells [1]; knockdown of ATF4,30±9%
same,"subG1 (dead, apoptotic) cells",MDA-MB-468 cells [2],31.7%
same,decrease of Akt phosphorylation at serine 473,"[3]; 10 μM, 24 hours",3 fold
same,decrease of p70S6K phosphorylation at threonine 389,"[3]; 10 μM, 24 hours",3 fold
same,p44/42 ERK1/2 phosphorylation at threonine 202 and tyrosine 204,[3]; 24 hour treatment,abrogated
same,IRE1α and BiP levels,PC3 and DU145 PCa cells,salient induction of IRE1α and BiP levels

# Reference: patent publication US9388126B2, “Sigma receptor ligands and methods of modulating cellular protein homeostasis using same” (Drexel University, priority 2012, dated 2016)
